From PMC9667936, “Functional mapping of the 14-3-3 hub protein as a guide to design 14-3-3 molecular glues” (Chemical Science, 2022)
Where a SMILES comes first, the peptide text is derived from it. [ ]: non-standard residue; d: D form. The star is where a group is joined. ξ: configuration not given here. FITC = O=C1OC2(c3ccc(O)cc3Oc3cc(O)ccc32)c2ccc(NC(=S)*)cc21; Phe(4-NO2) = N[C@@H](Cc1ccc([N+](=O)[O-])cc1)C(=O)O; ξAla(4-thiazolyl) = NC(Cc1cscn1)C(=O)O; pS = N[C@@H](COP(=O)(O)O)C(=O)O; β3hS = N[C@@H](CO)CC(=O)O; Nva = CCC[C@H](N)C(=O)O; ξβ3hS = NC(CO)CC(=O)O; βAla = NCCC(=O)O

Legend:
[1] = system: 14-3-3γ with partner peptides (ChREBP, ERα, SOS1, B-Raf, ERRγ, USP8, PIN1, p65); assay: FA selectivity study: 14-3-3 partner peptides titrated to preformed 14-3-3γ/FITC-2d complex; assay type: binding, human; conditions: partner peptides titrated (from 100 μM) to 2 μM 14-3-3γ and 20 nM FITC-2d; n = 2
Method: (§1) a four-parameter logistic model (4PL). Each measurement was performed in two independent […]
(§2) Fluorescence anisotropy (FA) - 2D-14-3-3/ChREBP titrations: 14-3-3γ was titrated in a 2-fold dilution series (starting at 300 µM 14-3-3γ) to 20 nM of fluorescein-labeled peptide 2d in FA buffer (10 mM HEPES pH 7.4, 150 mM NaCl, 0.1% (v/v) Tween20, 0.1% (w/v) BSA) in presence of 2-fold dilution series of unlabeled ChREBP peptide (0.01-10 µM). Dilution series were made in a polystyrene (non-binding) low-volume Corning Black Round Bottom 384-well plates (Corning 4514 or 4511). Measurements were performed directly after plate preparation, using a Tecan Infinite F500 plate reader at room temperature (lex: 485 ± 20 nm; lem: 535 ± 25 nm; mirror: Dichroic 510; flashes: 20; integration time: 50 ms; settle time:
(§3) 0 ms; gain: optimal; and Z-position: calculated from well). Wells containing only FITC-peptide were used to set as G-factor at 35 mP. All data were analyzed using GraphPad Prism (7.00) for Windows and fitted using a four-parameter logistic model (4PL). […]
(§4) with R = 14-3-3, P = non-natural peptide (labelled), and C = ChREBP. The framework determined based on this system description the equilibrium equations needed to determine KDII and α. […] From this the model determined the KDII and α (with 95% confidence interval) and the error-landscape of the determine parameters. […]

14-3-3γ/ChREBP = biological target: T1, 14-3-3γ/ChREBP (Homo sapiens, UniProt P61981+Q9NP71); assay: 2D FA titration of 14-3-3/ChREBP and cooperativity analysis with thermodynamic equilibrium model; assay type: binding; conditions: 14-3-3γ/ChREBP/2d ternary complex; 2D FA titration (20 nM FITC-2d, 0.01–10 μM ChREBP) fitted to thermodynamic equilibrium model; n = 2
T1 construct: made in house; host or cells: E. coli NiCo21 (DE3) for 14-3-3 gamma; ChREBP is a synthetic peptide
T1 sequence (P61981 1-247): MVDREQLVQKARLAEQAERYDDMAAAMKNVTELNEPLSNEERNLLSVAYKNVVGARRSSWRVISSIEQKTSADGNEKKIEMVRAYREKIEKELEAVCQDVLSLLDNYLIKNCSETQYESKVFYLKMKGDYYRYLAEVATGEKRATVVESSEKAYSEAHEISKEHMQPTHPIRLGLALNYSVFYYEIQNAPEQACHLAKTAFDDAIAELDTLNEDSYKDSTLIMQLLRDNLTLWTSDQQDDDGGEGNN
T1 sequence (Q9NP71 118-142 partner limits assumed): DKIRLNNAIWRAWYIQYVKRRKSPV
Method: as §1, §2, §3, §4

14-3-3 = conditions: hits of a 10^8-membered synthetic non-canonical phosphopeptide library; read-out: affinity for 14-3-3; cited from earlier work
Text: We selected peptide 14-3-3.12, herein termed peptide 1, from the top hits for functional mapping. […] Further, the peptide completely occupies the 14-3-3 binding groove, thus allowing to explore both sides flanking 14-3-3's central phospho-accommodating pocket.

| Structure (SMILES) | selectivity of ternary complex formation over a panel of 14-3-3 partner peptides [1] | cooperativity factor α (14-3-3γ/ChREBP) | Kd (14-3-3) [µM] |
| --- | --- | --- | --- |
| C[C@H](NC(=O)[C@H](CCCCN)NC(=O)[C@H](Cc1ccc([N+](=O)[O-])cc1)NC(=O)CCNC(=O)C[C@H](CO)NC(=O)[C@H](Cc1ccc([N+](=O)[O-])cc1)NC(=O)[C@@H](N)COP(=O)(O)O)C(=O)N[C@@H](CCCCNC(=S)Nc1ccc2c(c1)C(=O)OC21c2ccc(O)cc2Oc2cc(O)ccc21)C(N)=O [2d] (H-[pS][Phe(4-NO2)][β3hS][βAla][Phe(4-NO2)]KAK(FITC)-NH2) | highly selective ternary complex formation | 36 |  |
| CCC[C@H](NC(=O)[C@H](N)CCCCN)C(=O)N[C@@H](Cc1ccc([N+](=O)[O-])cc1)C(=O)NC(Cc1cscn1)C(=O)N[C@@H](COP(=O)(O)O)C(=O)N[C@@H](Cc1ccc([N+](=O)[O-])cc1)C(=O)NC(CO)CC(=O)NCCC(=O)N[C@@H](Cc1ccc([N+](=O)[O-])cc1)C(=O)N[C@@H](CCCCN)C(N)=O (stereo partly drawn) [compound 1] (H-[dK][Nva][Phe(4-NO2)][ξAla(4-thiazolyl)][pS][Phe(4-NO2)][ξβ3hS][βAla][Phe(4-NO2)]K-NH2) |  |  | 0.019 |
